Test results taken from the NIST ThermoML archive (doi:10.1016/j.tca.2015.08.011).

Key:
[1] = molar heat capacity at constant pressure; details: 101.33 kPa, Crystal, Small sample (50 mg) DSC
[2] = 101.33 kPa, Crystal, Laser pulse heating

[Ce+4].[O-2].[O-2] [ceric oxide]
Details	molar heat capacity at constant pressure, [1] [J/K/mol]	thermal conductivity, [2] [W/m/K]
298.15 K	–	15.15
323.15 K	57.9	–
373.15 K	62.1	–
423.15 K	65.42	–
473.15 K	67.99	–
523.15 K	69.93	–
573.15 K	71.34	–
623.15 K	72.32	–
673.15 K	72.96	–
723.15 K	73.34	–
773.15 K	73.53	6.05
823.15 K	73.6	–
873.15 K	73.58	–
923.15 K	73.53	–
973.15 K	73.48	–
1023.1 K	73.44	–
1073.2 K	73.46	–
1123.2 K	73.51	–
1173.2 K	73.61	–
1273.2 K	–	2.7
